Laboratory results published in US20230346827A1 (priority 2020, published 2023).

Legend:
[1] = test system: PBMC and HUVEC + TCR ligands; assay: BioMAP SAg system; assay type: cell-based, human; settings: annotated relative to vehicle controls
Description: (§1) Cell types and stimuli used in each system are as follows: 3C system [HUVEC + (IL-1β, TNFα and IFNy)], 4H system [HUVEC + (IL-4 and histamine)], LPS system [PBMC and HUVEC + LPS (TLR4 ligand)], SAg system [PBMC and HUVEC + TCR ligands], BT system [CD19+ B cells and PBMC + (α-IgM and TCR ligands)], BF4T system [bronchial epithelial cells and HDFn + (TNFα and IL-4)], BE3C system [bronchial epithelial cells + (IL-1β, TNFα and IFNy)], CASM3C system [coronary artery smooth muscle cells + (IL-1 β, TNFα and IFNy)], HDF3CGF system [HDFn + (IL-1β, TNFα, IFNy, EGF, bFGF and PDGF-BB)], KF3CT system [keratinocytes and HDFn + (IL-1β, TNFα, IFNy and TGFβ)], MyoF system [differentiated lung myofibroblasts + (TNFα and TGFβ)] and Mphg system [HUVEC and M1 macrophages + Zymosan (TLR2 ligand)].
Systems are derived from either single cell types or co-culture systems. Adherent cell types are cultured in 96 or 384-well plates until confluence, followed by the addition of PBMC (SAg and LPS systems). […] Soluble factors from supernatants are quantified using either HTRF® detection, bead-based multiplex immunoassay or capture ELISA. Overt adverse effects of test agents on cell proliferation and viability (cytotoxicity) are detected by sulforhodamine B (SRB) staining, for adherent cells, and alamarBlue® reduction for cells in suspension. […]

human purified monocytes = assay: Stimulated IL-6 release from human purified monocytes (ELISA); assay type: cell-based; settings: 24 h, LMW-DS 60-600 µg/ml, heparin 2.0-20 µg/ml, dexamethasone 3.0 µM
Procedure: Peripheral blood mononuclear cells (PBMC) were isolated from healthy donors through Ficoll-Paque PLUS (GE Healthcare; 11778538) density centrifugation. Monocytes were purified using the EasySep™ human monocyte enrichment kit (StemCell) that purifies monocytes ‘untouched’ to maintain their phenotype.
Monocytes were cultured in the absence (unstimulated PBS vehicle controls) or presence of stimulation (LPS or peptidoglycan) in the absence (vehicle) or presence of LMW-DS (Tikomed AB, Viken, Sweden, WO 2016/076780; three concentrations; top concentration 600 µg/ml, 200 µg/ml and 60 µg/ml), heparin (2.0, 6.0 or 20 µg/ml; equivalent to 0.406, 1.218 and 4.06 units/ml; Sigma Aldrich) or dexamethasone (3.0 µM; Sigma Aldrich) for 24 hours at 37° C., 5% CO2. Following centrifugation, cell culture supernatants were removed and stored at -20° C. awaiting analysis for IL-6 by ELISA. Levels of IL-6 were quantified in the supernatant by ELISA (R&D systems) according to manufacturer’s instructions.

human primary cells = assay: BioMAP Diversity PLUS panel (12 human primary cell-based systems)
Procedure: Four concentrations of LMW-DS (ILB®, Tikomed AB, Viken, Sweden, WO 2016/076780; 150 nM, 440 nM, 1.3 µM, 4 µM) were investigated in the BioMAP® Diversity PLUS panel by Eurofins.
Human primary cells in BioMAP systems are used at early passage (passage 4 or earlier) to minimize adaptation to cell culture conditions and preserve physiological signaling responses. All cells are from a pool of multiple donors (n = 2 - 6), commercially purchased and handled according to the recommendations of the manufacturers. Human blood derived CD14+ monocytes are differentiated into macrophages in vitro before being added to the Mphg system. Abbreviations are used as follows: Human umbilical vein endothelial cells (HUVEC), Peripheral blood mononuclear cells (PBMC), Human neonatal dermal fibroblasts (HDFn), B cell receptor (BCR), T cell receptor (TCR) and Toll-like receptor (TLR).
as §1
Systems are derived from either single cell types or co-culture systems. Adherent cell types are cultured in 96 or 384-well plates until confluence, followed by the addition of PBMC (SAg and LPS systems). The BT system consists of CD19+ B cells co-cultured with PBMC and stimulated with a BCR activator and low levels of TCR stimulation. […] Each plate contains drug controls (e.g., legacy control test agent colchicine at 1.1 µM), negative controls (e.g., non-stimulated conditions) and vehicle controls (e.g., 0.1% DMSO) appropriate for each system. Direct ELISA is used to measure biomarker levels of cell-associated and cell membrane targets. Soluble factors from supernatants are quantified using either HTRF® detection, bead-based multiplex immunoassay or capture ELISA. Overt adverse effects of test agents on cell proliferation and viability (cytotoxicity) are detected by sulforhodamine B (SRB) staining, for adherent cells, and alamarBlue® reduction for cells in suspension. For proliferation assays, individual cell types are cultured at subconfluence and measured at time points optimized for each system (48-hrs: 3C and CASM3C systems; 72-hrs: BT and HDF3CGF systems; 96-hrs: SAg system). Cytotoxicity for adherent cells is measured by SRB (24-hrs: 3C, 4H, LPS, SAg, BF4T, BE3C, CASM3C, HDF3CGF, KF3CT, and Mphg systems; 48-hrs: MyoF system), and by alamarBlue staining for cells in suspension (24-hrs: SAg system; 42-hrs: BT system) at the time points indicated.
Biomarker measurements in a test agent-treated sample are divided by the average of control samples (at least 6 vehicle controls from the same plate) to generate a ratio that is then log10 transformed. Significance prediction envelopes are calculated using historical vehicle control data at a 95% confidence interval.
Biomarker activities are annotated when 2 or more consecutive concentrations change in the same direction relative to vehicle controls, are outside of the significance envelope and have at least one concentration with an effect size > 20% (|log10 ratio| > 0.1). Biomarker key activities are described as modulated if these activities increase in some systems, but decrease in others. […]

Q: For sodium salt of dextran sulfate [LMW-DS], which Increased biomarker activity [1] is on record?
A: The Increased biomarker activity was “IL-8”.

Q: What about the “LPS-stimulated IL-6 release” value (human purified monocytes; LPS 0.01 ng/ml) of the same substance?
A: Its value is “concentration dependent statistically significant inhibition”.

Q: And the “peptidoglycan-stimulated IL-6 release” value (human purified monocytes; peptidoglycan 30 ng/ml)?
A: The value was “concentration dependent statistically significant increase”.

Q: What about the annotated readouts (human primary cells; 150 nM, 440 nM, 1.3 µM, 4 µM) of the same substance?
A: Its annotated readouts is 25.

Q: And the “cytotoxicity for human primary cells” value (human primary cells; at the concentrations tested (150 nM - 4 µM))?
A: The value was “not cytotoxic”.

Q: And the “thrombomodulin (TM)” value (human primary cells; hemostasis-related activity)?
A: Its value is “increased”.

Q: And the CD69 (human primary cells; immunomodulatory activity)?
A: The CD69 was “increased”.

Q: And the M-CSF (human primary cells; immunomodulatory activity)?
A: Its M-CSF is “decreased”.

Q: What about the “secreted immunoglobulin G (sIgG)” value (human primary cells; immunomodulatory activity) of the same substance?
A: The value was “decreased”.

Q: And the “soluble IL-17A (sIL-17A)” value (human primary cells; immunomodulatory activity)?
A: Its value is “increased”.

Q: And the “Eotaxin 3 (Eot3)” value (human primary cells; inflammation-related activity)?
A: The value was “increased”.

Q: And the I-TAC (human primary cells; inflammation-related activity)?
A: The I-TAC was “decreased”.

Q: What about the IL-8 (human primary cells; inflammation-related activity) of the same substance?
A: The IL-8 was “increased”.

Q: And the IP-10 (human primary cells; inflammation-related activity)?
A: Its IP-10 is “decreased”.

Q: And the MCP-1 (human primary cells; inflammation-related activity)?
A: Its MCP-1 is “decreased”.

Q: What about the MIG (human primary cells; inflammation-related activity) of the same substance?
A: The MIG was “decreased”.

Q: What about the VCAM-1 (human primary cells; inflammation-related activity) of the same substance?
A: Its VCAM-1 is “decreased”.

Q: What about the sTNFα (human primary cells; inflammation-related activity) of the same substance?
A: Its sTNFα is “decreased”.

Q: And the EGFR (human primary cells; tissue remodeling activity)?
A: The EGFR was “increased”.

Q: What about the MMP-1 (human primary cells; tissue remodeling activity) of the same substance?
A: The MMP-1 was “increased”.

Q: And the PAI-1 (human primary cells; tissue remodeling activity)?
A: The PAI-1 was “increased”.

Q: What about the uPAR (human primary cells; tissue remodeling activity) of the same substance?
A: Its uPAR is “increased”.

Q: And the “antiproliferative effect on human primary endothelial cells” value (human primary cells; top concentration only (4 µM))?
A: The value was “modestly and selectively antiproliferative”.
